This experiment in a line: In vitro color change (ΔE*) of adjuvant plus dihydroxyacetone formulations on synthetic skin. The following applies: for ΔE* at 5 hours / ΔE* at 21 hours / ΔE* at 46 hours: Example 4: total adjuvant at molar equivalent of 1% glycine, dihydroxyacetone 2.5%; for ΔE* at 5 hours: pH 3.5, 5 hours; for ΔE* at 21 hours: pH 3.5, 21 hours; for ΔE* at 46 hours: pH 3.5, 46 hours; for ΔE* at 5.5 Hours / ΔE* at 29 Hours / ΔE* at 53 Hours: adjuvant at molar equivalent of 1% glycine with 2.5% dihydroxyacetone, pH 3.5, 5 μl/cm^2, 35° C. and 40% RH. On the procedure:
Commercially available Vitro-Skin® (synthetic skin) was used as the substrate and pH of the adjuvant and dihydroxyacetone formulations were maintained at 3.5, adjusted with citric acid.
The synthetic skin was pre-hydrated at 95% Relative Humidity (RH) for about 24 hours and then treated with formulations at a dosage of 5 μl/cm^2. The treated synthetic skin was stored at 35° C. and 40% RH for certain time frames, not exceeding 53 hours. Color development was monitored periodically after treatment using a HunterLab Labscan XE colorimeter. ΔE* is defined as √[(ΔL*)^2+(Δa+)^2+(Δb*)^2] where ΔL* is lightness change, Δa* is the change in +red/−green, Δb* is the change in […] and further where smaller ΔE* indicates less color change.

Counter-ions that a name gives are not always drawn.

For `NCCOS(=O)(=O)O` [2-Aminoethyl Hydrogen Sulfate], the “ΔE* at 5 hours” value is given as 15, the “ΔE* at 21 hours” value was determined as 25, the “ΔE* at 46 hours” value was 27 and the “ΔE* at 5.5 Hours” value came out at 20.0. Moreover, the “ΔE* at 29 Hours” value is 35.0 and the “ΔE* at 53 Hours” value worked out at 39.0.
For the molecule `CSCCN` [2-Methylthio-Ethylamine], the “ΔE* at 5.5 Hours” value came out at 22.0, the “ΔE* at 29 Hours” value was 32.0 and the “ΔE* at 53 Hours” value is recorded as 36.0.
For `NCC(=O)O` [Glycine, reference compound] the same measures were 15.5, 33.0 and 37.0.
With `NCCS(=O)O` [Hypotaurine], the “ΔE* at 5.5 Hours” value came to 8.0, the “ΔE* at 29 Hours” value amounted to 21.0 and the “ΔE* at 53 Hours” value is given as 26.0.
For `NCCS(=O)(=O)O` [Taurine], the “ΔE* at 5 hours” value is on record as 9, the “ΔE* at 21 hours” value is 26, the “ΔE* at 46 hours” value turned out to be 28 and the “ΔE* at 5.5 Hours” value is given as 17.0. Besides, the “ΔE* at 29 Hours” value turned out to be 33.0 and the “ΔE* at 53 Hours” value is 36.0.
